These results are taken from article PMC9950073, “Alleviation of arthritis through prevention of neutrophil extracellular traps by an orally available inhibitor of protein arginine deiminase 4” (Scientific Reports, 2023).

In series [1] the test system is PBMCs. Put plainly: Cell Titer Glo viability assay, PBMC. The conditions noted are these: 24 h, up to 10 µM. Type of series: cell-based, human. As to the method: In a K2EDTA vacutainer, 50 mL blood from a healthy human donor was collected, diluted 1:1 with PBS, and gently layered on Histopaque-1077. The tube was centrifuged at 400 g for 30 min at room temperature in a swinging bucket rotor without brakes or acceleration. After centrifugation, the tubes were gently removed from the centrifuge to avoid disturbing the layers of RBC at the bottom, PBMC in the middle, and clear supernatant at the top. Plasma and platelet-rich upper layer was aspirated using a sterile pipette leaving the mononuclear cell layer (buffy coat) undisturbed at the interphase. This buffy coat layer was transferred with care to a fresh conical 50 mL tube, resuspended in PBS buffer and the tube was centrifuged for 10 min at 300 g at room temperature, and the resultant cell pellet was resuspended in complete RPMI medium. After repeating this step twice, the resultant isolated cells were used for the experiments.
The CellTiter-Glo luminescent cell viability assay was performed on neutrophils/peripheral blood mononuclear cells according to the manufacturer’s instructions (Promega, catalog number: G7570)[35]. Breifly, 0.25 million cells of Neutrophils /PBMC were seeded in a black 96 well clear bottom plate. Compound was added at desired concentrations in 1% DMSO. […] Luminescence was recorded with Perkin Elmer envision 2103 multilabel reader.
For orientation: In ATP-based viability assays light output follows the ATP content of the culture.

Series [2] is described as follows: Microsomal stability, RLM. The conditions noted are these: 1 µM, liver microsomes 0.5 mg/mL; one range given for HLM/MLM/DLM/RLM. Type of series: in vitro ADME, rat. The procedure: (§1) Microsomal stability: Liver microsomes (0.5 mg/mL) from different species were incubated with JBI-589 (1 µM) with or without NADPH (1 mM) at 37 °C for 30 min in potassium phosphate buffer (pH 7.4) and then reaction was stopped with quenching solution (0.5% Formic acid in internal standard (IS) containing ACN). Resulting samples were centrifuged and supernatant was taken for LC–MS/MS analysis. Percent metabolism was calculated as follows: % Metabolized: [1 − (test area ratio/control area ratio)] *100.
On the technique in general: Liver microsomes are vesicles of endoplasmic reticulum, rich in cytochrome P450 enzymes.

Series [3] has as its system mouse neutrophils. In words: NET formation assay on neutrophils isolated from orally dosed mice. The following applies: 50 mg/kg orally for seven consecutive days. Type of series: in vivo. As to the method:
To determine the effects of JBI-589 on NET formation, an in vitro NET assay was performed. In mouse neutrophils, ionomycin stimulation induced more than 90% of H4Cit-positivity and NET formation in approximately 15% of neutrophils. […] To evaluate the in vivo effects, JBI-589 at 50 mg/kg or vehicle (water) was orally administered twice daily for seven consecutive days. Four hours after the last administration, mouse neutrophils were isolated, and then a NET formation assay was performed.
Mouse peripheral blood was collected by retro-orbital puncture in ethylenediaminetetraacetic acid (EDTA) anticoagulated buffer supplemented with 1% endotoxin-free BSA in sterile PBS. Neutrophils were isolated by Percoll gradient centrifugation as described previously. The purity of neutrophils was more than 90% as confirmed by the Wright-Giemsa stain.
Mouse or human neutrophils were resuspended in HEPES-supplemented phenol red-free RPMI1640 medium and 1.5 × 10^4 cells were seeded per well in a 96-well plate. After incubating for 20 min at 37 °C and 5% CO2, the cells were stimulated with vehicle control or ionomycin (Sigma, Catalog No: I24222) (4 µM) for 4 h. Neutrophils were fixed with 4% paraformaldehyde (PFA), washed and permeabilized (0.1% Triton X-100, 0.1% sodium citrate) for 10 min at 4 °C. Subsequently, neutrophils were incubated with blocking buffer (2.5% BSA, 0.5% Tween-20 in 1 × PBS) at room temperature for an hour followed by overnight incubation with the primary antibody against citrullinated histone H4 (H4Cit, 1:250, catalog number: 07-596, Millipore, Burlington, MA). After washing 3 times with PBS, neutrophils were incubated with Hoechst 33342 (1:10,000, catalog number: H3570, Invitrogen). Images were obtained with a Zeiss Axiovert 200 M wide-field fluorescence microscope (Zeiss, Oberkochen, Germany) with the Zeiss AxioVision software. The percentages of H4Cit positive neutrophils and neutrophil extracellular traps (NETs) were calculated by quantifying more than 200 randomly selected cells. […]

Series [4] has as its target T1, CYP2C9 (Homo sapiens, UniProt P11712).
T1 construct: from tissue; host or cells: human liver microsomes
In words: CYP inhibition in human liver microsome, CYP2C9. Type of series: in vitro ADME. As to the method:
(§2) CYP inhibition: Human liver microsome (0.1–0.5 mg/mL for various CYPs) and appropriate probe substrates (2.5–20 µM) were incubated in potassium phosphate buffer with or without JBI-589 for 5 min at 37 °C. The reaction was initiated by addition of NADPH (1 mM), incubated at 37 °C for 10 min and quenched (0.5% Formic acid in internal standard (IS) containing ACN). Samples were then centrifuged and taken for LC–MS/MS analysis. Percent change in metabolite formation for each substrate under above conditions using formula: Percent inhibition = [1 − (test area ratio/control area ratio)] *100.

Series [5] can be described thus: Microsomal stability, HLM. Type of series: in vitro ADME, human. The following applies: 1 µM, liver microsomes 0.5 mg/mL; one range given for HLM/MLM/DLM/RLM. The procedure:
as §1

In series [6] the target is T2, CYP2D6 (Homo sapiens, UniProt P10635).
T2 construct: from tissue; host or cells: human liver microsomes
T2 sequence (P10635 whole entry): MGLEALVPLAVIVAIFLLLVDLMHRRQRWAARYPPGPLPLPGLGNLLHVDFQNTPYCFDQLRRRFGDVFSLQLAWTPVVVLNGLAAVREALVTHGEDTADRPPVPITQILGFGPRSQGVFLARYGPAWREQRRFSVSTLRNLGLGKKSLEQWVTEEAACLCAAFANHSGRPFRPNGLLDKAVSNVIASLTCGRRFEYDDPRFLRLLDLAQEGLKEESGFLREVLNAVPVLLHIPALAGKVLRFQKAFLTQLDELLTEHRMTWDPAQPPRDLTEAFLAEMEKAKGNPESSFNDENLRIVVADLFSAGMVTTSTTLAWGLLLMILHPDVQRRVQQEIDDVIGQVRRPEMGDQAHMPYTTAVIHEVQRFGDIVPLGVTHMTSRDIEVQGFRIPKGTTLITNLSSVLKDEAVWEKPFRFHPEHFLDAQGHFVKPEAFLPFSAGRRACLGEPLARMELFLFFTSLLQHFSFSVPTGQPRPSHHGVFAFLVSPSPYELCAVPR
Put plainly: CYP inhibition in human liver microsome, CYP2D6. Type of series: in vitro ADME. As to the method:
as §2

Where [7] appears, read: neutrophils isolated 4 h after last administration, ionomycin 4 µM.
Where [8] appears, read: predicted from % inhibition, text says major CYPs tested.

Structures are written as SMILES.

T1 sequence (P11712 whole entry): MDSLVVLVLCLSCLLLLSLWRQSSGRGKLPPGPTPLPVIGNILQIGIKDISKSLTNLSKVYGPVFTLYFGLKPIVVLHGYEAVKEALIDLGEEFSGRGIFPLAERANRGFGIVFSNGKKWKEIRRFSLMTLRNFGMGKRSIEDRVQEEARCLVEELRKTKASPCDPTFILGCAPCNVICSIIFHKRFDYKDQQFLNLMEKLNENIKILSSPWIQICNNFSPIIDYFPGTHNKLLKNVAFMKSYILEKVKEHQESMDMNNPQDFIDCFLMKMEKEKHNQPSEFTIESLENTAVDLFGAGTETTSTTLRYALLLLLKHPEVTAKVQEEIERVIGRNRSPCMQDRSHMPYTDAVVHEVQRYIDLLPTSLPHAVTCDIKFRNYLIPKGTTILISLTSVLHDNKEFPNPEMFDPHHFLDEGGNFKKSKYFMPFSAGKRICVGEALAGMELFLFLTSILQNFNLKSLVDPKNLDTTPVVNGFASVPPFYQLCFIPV

What is called inhibition is the change of the read-out against control, counted positive when it falls. For orientation: IC50 means the concentration at which inhibition is half-maximal. `Cc1c(-c2cc3ccccc3n2Cc2ccc(F)cc2)nc2cc(C(=O)N3CCC[C@@H](N)C3)ccn12` [JBI-589, (R)-(3-aminopiperidin-1-yl)(2-(1-(4-fluorobenzyl)-1H-indol-2-yl)-3-methylimidazo[1,2-a]pyridin-7-yl)methanone]: the “viability of PBMCs” value in series [1] is given as “minimal or no changes”. For the same compound, in series [2], the “RLM % metabolized @ 30 min” value was 25-50%. In addition, the “H4Cit positivity compared with vehicle” value in series [3] (setting [7]) is “reduced both H4Cit positivity and NET formation significantly”. For the same compound, the “NET formation compared with vehicle” value in series [3] (setting [7]) is “reduced both H4Cit positivity and NET formation significantly”. Moreover, in series [3] (vehicle 88%, p = 0.01), the “percentage of H4Cit positive cells” value turned out to be 83%. Further, the inhibition at 10 min, 10 µM in series [4] (human liver microsomes, 10 µM, human liver microsome, read-out: CYP2C9 inhibition (% inh @10 µM)) was less than 50%; in series [6] (human liver microsomes, 10 µM, human liver microsome, read-out: CYP2D6 inhibition (% inh @10 µM)), less than 50%. Also, the IC50 in series [4] (setting [8]) and in series [6] (setting [8]) was more than 10 µM in each case. Also, in series [5], the “HLM % metabolized @ 30 min” value was 25-50%.
